Reference: the supplement of paper PMC13380429

Experiments:
Conditions in all cases: 72 h
HepG2 [1] = assay: relative viability EC50 (midpoint between 100% and the lowest measured viability); higher = less toxic
Caco-2 [2] = assay: as above
Calu-3 [3] = assay: as above
U2OS [4] = assay: as above
Vero E6 [5] = assay: as above
HepG2 [6] = assay: cell viability relative to DMSO; higher = less toxic
Caco-2 [7] = assay: as above
Calu-3 [8] = assay: as above
U2OS [9] = assay: as above
Vero E6 [10] = assay: as above
HepG2 [11] = assay: drug sensitivity score (DSS) for viability; higher = more toxic; extreme values may be limits of the assay
Caco-2 [12] = assay: as above
Calu-3 [13] = assay: as above
U2OS [14] = assay: as above
Vero E6 [15] = assay: as above

| Structure (SMILES) | relative viability EC50 (HepG2 [1]) [µM] | relative viability EC50 (Caco-2 [2]) [µM] | relative viability EC50 (Calu-3 [3]) [µM] | relative viability EC50 (U2OS [4]) [µM] | relative viability EC50 (Vero E6 [5]) [µM] | cell viability (HepG2 [6]; 1 nM) [%] | cell viability (HepG2 [6]; 10 nM) [%] | cell viability (HepG2 [6]; 100 nM) [%] | cell viability (HepG2 [6]; 1000 nM) [%] | cell viability (HepG2 [6]; 10000 nM) [%] | cell viability (Caco-2 [7]; 1 nM) [%] | cell viability (Caco-2 [7]; 10 nM) [%] | cell viability (Caco-2 [7]; 100 nM) [%] | cell viability (Caco-2 [7]; 1000 nM) [%] | cell viability (Caco-2 [7]; 10000 nM) [%] | cell viability (Calu-3 [8]; 1 nM) [%] | cell viability (Calu-3 [8]; 10 nM) [%] | cell viability (Calu-3 [8]; 100 nM) [%] | cell viability (Calu-3 [8]; 1000 nM) [%] | cell viability (Calu-3 [8]; 10000 nM) [%] | cell viability (U2OS [9]; 1 nM) [%] | cell viability (U2OS [9]; 10 nM) [%] | cell viability (U2OS [9]; 100 nM) [%] | cell viability (U2OS [9]; 1000 nM) [%] | cell viability (U2OS [9]; 10000 nM) [%] | cell viability (Vero E6 [10]; 1 nM) [%] | cell viability (Vero E6 [10]; 10 nM) [%] | cell viability (Vero E6 [10]; 100 nM) [%] | cell viability (Vero E6 [10]; 1000 nM) [%] | cell viability (Vero E6 [10]; 10000 nM) [%] | drug sensitivity score (HepG2 [11]) | drug sensitivity score (Caco-2 [12]) | drug sensitivity score (Calu-3 [13]) | drug sensitivity score (U2OS [14]) | drug sensitivity score (Vero E6 [15]) |
| --- | --- | --- | --- | --- | --- | --- | --- | --- | --- | --- | --- | --- | --- | --- | --- | --- | --- | --- | --- | --- | --- | --- | --- | --- | --- | --- | --- | --- | --- | --- | --- | --- | --- | --- | --- |
| CN[C@H]1C(=O)N[C@@H]2Cc3ccc(cc3)Oc3cc4cc(c3O[C@@H]3O[C@H](C(=O)O)[C@@H](O)[C@H](O)[C@H]3NC(=O)CCCCCCCCC(C)C)Oc3ccc(cc3Cl)[C@@H](O)[C@@H]3NC(=O)[C@H](NC(=O)[C@@H]4NC(=O)[C@@H](NC2=O)c2cc(cc(O)c2Cl)Oc2cc1ccc2O)c1ccc(O)c(c1)-c1c(O[C@H]2O[C@H](CO)[C@@H](O)[C@H](O)[C@@H]2O)cc(O)cc1[C@@H](C(=O)NCCCN(C)C)NC3=O [dalbavancin] | > 10 | > 10 | > 10 | > 10 | > 10 | 88.7 | 94.3 | 118 | 91.4 | 116 | 89.3 | 106 | 92.6 | 111 | 90.1 | 95.2 | 102 | 95.2 | 103 | 95 | 99.1 | 100 | 96.9 | 98 | 95.8 | 111 | 114 | 109 | 87.3 | 102 | 0 | 0 | 0 | 0 | 0 |
| OC[C@H]1O[C@H](O[C@]2(CCl)O[C@H](CCl)[C@@H](O)[C@@H]2O)[C@H](O)[C@@H](O)[C@H]1Cl [sucralose] | > 10 | > 10 | > 10 | > 10 | > 10 | 99.1 | 97.7 | 96.8 | 96.2 | 97 | 96.8 | 94.1 | 99.1 | 95.9 | 101 | 99.6 | 91.8 | 98.5 | 99.1 | 95.5 | 102 | 100 | 103 | 96 | 103 | 100 | 102 | 101 | 106 | 92.7 | 0 | 0 | 0 | 0 | 0 |
| C=CCNC(=O)c1cc([N+](=O)[O-])cc2c(=O)[nH]c(Nc3ccc(Cl)c(Cl)c3)nc12 | > 10 | > 10 | > 10 | > 10 | > 10 | 104 | 90.5 | 100 | 91.9 | 95.8 | 100 | 95.5 | 99.1 | 96.5 | 98.4 | 104 | 93.2 | 103 | 102 | 94 | 97.7 | 96.2 | 102 | 98 | 92.1 | 92.4 | 94.3 | 92.9 | 97.5 | 97.7 | 0 | 0 | 0 | 0 | 0 |
| COc1cc(OC)cc(-c2ccc3c(-c4ccc(F)cc4)n[nH]c3n2)c1 [APcK-110] | > 10 | > 10 | > 10 | > 10 | > 10 | 99.8 | 90.1 | 101 | 98.1 | 107 | 94.5 | 98.3 | 97.6 | 96.3 | 99.9 | 99.5 | 110 | 104 | 103 | 97.3 | 93.5 | 99.5 | 97.9 | 99.9 | 103 | 99.1 | 89.9 | 97.1 | 93.3 | 108 | 0 | 0 | 0 | 0 | 0 |
| CC1(C)Cc2c(-c3ccccc3)c(-c3ccc(Cl)cc3)c(CC(=O)O)n2C1 [licofelone] | > 10 | > 10 | > 10 | > 10 | > 10 | 110 | 102 | 95.4 | 101 | 93.1 | 94.8 | 94.9 | 87.5 | 96.9 | 85.3 | 104 | 101 | 100 | 96 | 95 | 101 | 101 | 97.5 | 102 | 90.9 | 102 | 102 | 102 | 107 | 99.5 | 0 | 0.1 | 0 | 0 | 0 |
| Nc1cc(-c2ccncc2)c[nH]c1=O [amrinone] | > 10 | > 10 | > 10 | > 10 | > 10 | 96.2 | 100 | 104 | 97.8 | 97.3 | 96.2 | 97.1 | 92.4 | 91.8 | 95.9 | 94.9 | 95.7 | 93.7 | 93.9 | 109 | 104 | 98.3 | 105 | 98.9 | 108 | 95.5 | 96.2 | 86.6 | 100 | 106 | 0 | 0 | 0 | 0 | 0 |
| CCC(CC)(NC(=O)C(C)C)C(=O)N[C@@H](CCCNC(=N)N)C(=O)NC1(C(=O)NC(c2ccc(F)cc2)c2ccc(F)cc2)CCCC1 [MM-102] | > 10 | > 10 | > 10 | > 10 | > 10 | 100 | 96.8 | 98.4 | 105 | 114 | 99 | 93.9 | 101 | 94.6 | 102 | 98.1 | 85.4 | 92.5 | 97.8 | 97.8 | 97.8 | 94.9 | 101 | 95.8 | 99.2 | 94.2 | 101 | 97.3 | 99.5 | 106 | 0 | 0 | 0 | 0 | 0 |
| CCn1cnc2c(Nc3cccc(Cl)c3)nc(N[C@@H]3CCCC[C@@H]3N)nc21 | 3.5 | 2.82 | 3.25 | 2.8 | 2.94 | 91.4 | 112 | 103 | 106 | 1.1 | 91.9 | 98.8 | 103 | 96.8 | 27.8 | 97.4 | 90.9 | 108 | 101 | 19.5 | 102 | 94.4 | 102 | 95.3 | 0.9 | 94.1 | 98.9 | 96.1 | 97.2 | 6.3 | 5 | 4.4 | 4.4 | 6.2 | 5.6 |
| CN(C)CCc1ccc(O)cc1 [hordenine] | > 10 | > 10 | > 10 | > 10 | > 10 | 104 | 110 | 103 | 87.1 | 100 | 96.2 | 102 | 100 | 102 | 95.8 | 91.9 | 93.6 | 89.7 | 101 | 101 | 94.6 | 96.1 | 92.7 | 102 | 97.8 | 106 | 103 | 101 | 99.1 | 103 | 0 | 0 | 0 | 0 | 0 |
| CO[C@@]1(NC(=O)CSC[C@@H](N)C(=O)O)C(=O)N2C(C(=O)O)=C(CSc3nnnn3C)CS[C@@H]21 [cefminox] | > 10 | > 10 | > 10 | > 10 | > 10 | 108 | 116 | 96.6 | 98.1 | 92.1 | 106 | 103 | 91.5 | 103 | 98.5 | 116 | 99.8 | 105 | 94.5 | 122 | 96.6 | 98.8 | 102 | 104 | 101 | 93.7 | 103 | 99.3 | 104 | 97.8 | 0 | 0 | 0 | 0 | 0 |
| C[C@@]12CC[C@@H]3[C@@](CC[C@H]4[C@@]3(C)CCC[C@@]4(C)C(=O)O)(CC1=O)C2 [isosteviol] | > 10 | > 10 | > 10 | > 10 | > 10 | 94.4 | 91.4 | 100 | 99.5 | 107 | 87.5 | 99.9 | 89.2 | 95.2 | 109 | 103 | 105 | 112 | 110 | 94.5 | 101 | 101 | 96.8 | 96.5 | 98.1 | 97.8 | 99.6 | 98.5 | 97.5 | 106 | 0 | 0 | 0 | 0 | 0 |
| CC(C)(Cc1c[nH]c2ccc(Cl)cc12)NCCOc1ccccc1OCC1CC1 | 2.28 | 3.33 | 2.98 | 2.97 | 3.11 | 98.1 | 98.7 | 99.3 | 89.3 | -0.3 | 104 | 108 | 88.6 | 103 | 3.5 | 91.4 | 98.1 | 103 | 97.4 | 0.9 | 102 | 102 | 102 | 97.3 | 1.5 | 93.9 | 98 | 93.4 | 99.4 | 24.4 | 7.3 | 5.1 | 5.9 | 5.8 | 4.3 |
| CCc1ccccc1OC[C@@H](O)CN[C@H]1CCCc2ccccc21 | > 10 | > 10 | > 10 | > 10 | > 10 | 95.6 | 103 | 99.1 | 99.9 | 89.5 | 102 | 98.9 | 100 | 95.6 | 87.6 | 104 | 98.5 | 99.7 | 91.1 | 80.8 | 96.6 | 92.2 | 98.2 | 95.5 | 87 | 94.7 | 97.2 | 89.5 | 95.3 | 106 | 0 | 0.3 | 1.4 | 0 | 0 |
| Nc1cccc2c1C(=O)N(C1CCC(=O)NC1=O)C2=O (stereo not given) [pomalidomide] | > 10 | > 10 | > 10 | > 10 | > 10 | 104 | 104 | 98.5 | 101 | 111 | 86 | 85 | 103 | 95 | 98.3 | 106 | 103 | 103 | 105 | 90.9 | 99 | 97.3 | 104 | 96.1 | 98.4 | 93.5 | 97.1 | 89.2 | 99.4 | 103 | 0 | 0 | 0 | 0 | 0 |
